# Entries after “also recorded” stand apart in the source; their conditions may differ. Where a name gives a salt, the structure may show the parent alone.
# Assays:
# Assay type in all cases: physicochemical
# [1] = Slurry experiments at room temperature (thermodynamic stability of crystal forms, X-ray diffraction); details: for Slurry Result: 7 days, room temperature, form by XRD
# Protocol: Slurry experiments of Form I were performed at room temperature to verify if Form I is the thermodynamic crystal form. 0.050 g of Form I was suspended in 2 ml of solvent and stirred for 1 week. The sample was filtered and analyzed by X-ray diffraction. In the large majority of the experiments, Form I converts into Form II. […] By 1,4-Dioxane, a new crystal form was obtained named Form V. See Table 46 for the Form I slurries results (7 days).
# Further slurry experiments of Form I were performed at room temperature using 0.5 g of powder in 10 mL of solvent to confirm the results obtained even in large scale.
# 0.050 g of Form I were suspended in 2 ml of solvent and stirred at room temperature for 4 weeks (30 days). The sample was filtered and analyzed by X-ray diffraction. By 1,4-Dioxane, Form V was obtained. By tetrahydrofuran, Form II and Form VII were obtained. […] See Table 47 for the Form I slurries results (30 days).
# (§1) Slurry experiments of mixtures of Form I and Form II were performed at room temperature to verify their thermodynamic stability. 0.040 g of Form I+0.040 g of Form II were suspended in 4 ml of solvent and stirred for 1 week (7 days). The samples were filtered and analyzed by X-ray diffraction. By 1,4-Dioxane, Form V was obtained. […] See Table 48 for the Form I+Form II slurries results (7 days).
# as §1, with “II” for “I”, “III” for “II”, “II+0.040” for “I+0.040”, “49” for “48”, “II+Form III” for “I+Form II”
# as §1, with “II” for “I”, “IV” for “II”, “II+0.040” for “I+0.040”, “50” for “48”, “II+Form IV” for “I+Form II”
# as §1, with “II” for “I”, “V” for “II”, “II+0.040” for “I+0.040”, “51” for “48”, “II+Form V” for “I+Form II”
# as §1, with “II” for “I”, “VI” for “II”, “II+0.040” for “I+0.040”, “52” for “48”, “II+Form VI” for “I+Form II”
# as §1, with “II” for “I”, “VII” for “II”, “II+0.040” for “I+0.040”, “53” for “48”, “II+Form VII” for “I+Form II”
# [2] = Slurries in 2-propanol at room temperature, 50° C. and 80° C.; details: form by XRD
# Protocol: 0.050 g of Form I were suspended in 4 ml of solvent and stirred at room temperature. for 1 week (7 days). The sample was filtered and analyzed by X-ray diffraction.
# 0.040 g of Form I+0.040 g of Form II were suspended in 4 ml of solvent and stirred at room temperature for 1 week (7 days). The sample was filtered and analyzed by X-ray diffraction experiments.
# 0.050 g of Form II were suspended in 4 ml of solvent and stirred at room temperature for 1 week (7 days). The sample was filtered and analyzed by X-ray diffraction experiments.
# 0.050 g of Form I were suspended in 4 ml of solvent and stirred at 50° C. for 1 Week (7 days). The sample was filtered and analyzed by X-ray diffraction experiments.
# 0.040 g of Form I+0.040 g of Form II were suspended in 4 ml of solvent and stirred at 50° C. for 1 week (7 days). The sample was filtered and analyzed by X-ray diffraction experiments.
# Form I+Form II were suspended in solvent and stirred at 80° C. for 14 hours. The sample was filtered and analyzed by X-ray diffraction experiments. […] Slurry in 2-propanol at 80° C. is an atypical experiment because if we consider the boiling point of the solvent, it could be defined as a combination between a slurry and precipitation experiment. Form I was obtained during the precipitation from supersaturated solution by 2-propanol. However the high temperature and the reflux produce the energetic conditions needed by the stable crystal form (Form II) to convert to the metastable crystal form (Form I).
# [3] = Stability tests on bupropion hydrobromide polymorphs in humidity chamber (XRD pattern); details: 40° C., 85% R.H., open sample-holder
# Protocol: Stability tests were performed on bupropion hydrobromide Form I, Form II, Form III, Form IV, Form V and Form VI. The powders were stored in a controlled atmosphere (85% R.H.) at 40° C. Form I and Form II were stored for 7 and 30 days respectively, while the other forms were stored only for 30 days. The sample was positioned on the sample-holder which was introduced, without any cover, into the humidity chamber at 40° C. The layer of the sample on the sample-holder was about 0.5 cm.
# In addition, stability tests were performed on bupropion hydrobromide Form VII.
# [4] = TGA and DSC characterization; details: for TGA (mass change): successive mass-loss steps listed per polymorph; for DSC (onset ° C.): successive thermal events listed per polymorph
# Protocol: The PXRD diffraction patterns were obtained on X-ray powder diffraction PANalytical X′pert Pro equipped with X′Celerator, in a measurement range between 3 and 40 2 theta. All the DSC experiments were performed with a DSC 7 Perkin Elmer instrument in a temperature range between 25° C. and 250° C. with a heating rate of 10° C./min.
# All the TGA experiments were conducted with a TGA 7 Perkin Elmer instrument in a temperature range between 39° C. and 310° C. with a heating rate of 10° C./min.
# PXRD, DSC, TGA and IR analyses were obtained for Bupropion Hydrobromide Polymorph Form I, Form II, Form III, Form IV, Form V, Form VI, and Form VII. PXRD analyses were obtained for the amorphous form. With respect to the PXRD analyses, the Peak List is shown for Form I, Form II, Form III, Form IV, Form V, Form VI, Form VII and the amorphous form in Table 56, Table 57, Table 58, Table 59, Table 60, Table 61, Table 62 and Table 63 respectively.
# [5] = Stability tests on bupropion hydrobromide polymorphs in humidity chamber (XRD pattern); details: 28 days; 25° C.; 75% R.H.
# [6] = Release of bupropion base from the salt; details: 150 mg of the salt tested
# Protocol: It was previously observed that when 150 mg of bupropion HCl was tested for its release of bupropion, the base value that was released was 130 mg. However, when 150 mg of bupropion HBr was tested, the base value released was only 112 mg. Thus, the amount of bupropion HBr had to be increased in order to increase the base value from 112 mg to 130 mg, which was the target.
# [7] = room temperature, 1 week (7 days)
smiles,measurement,setting,value
"Br.CC(NC(C)(C)C)C(=O)c1cccc(Cl)c1 (single isomer, unassigned) [Form II]",Thermodynamic stability of the crystal form as shown by slurry experiments,[1],thermodynamically stable crystal form; also recorded: thermodynamic stable form
same,Slurry result in 2-propanol,"[2]; mixture Form I+Form II, 80° C., 14 hours",converted to Form I
same,Slurry result in 2-propanol,[2]; [7],Form II was obtained
same,XRD pattern / crystal form after storage,[3]; 7 days,did not show modification
same,XRD pattern / crystal form after storage,[3]; 30 days,did not show modification
same,TGA (mass change),[4],−93.35%
"Br.CC(NC(C)(C)C)C(=O)c1cccc(Cl)c1 (single isomer, unassigned) [Form VI]",XRD pattern / crystal form after storage,[3]; 30 days,converted into a mixture of Form I+Form II
same,TGA (mass change),[4],−97.68%
same,DSC (onset ° C.),[4],235 °C
Br.CC(NC(C)(C)C)C(=O)c1cccc(Cl)c1 (centres unmarked) [Form I + Form II],Slurry Result,"[1]; 1,2-Dimethoxy Ethane",Form II
same,Slurry Result,"[1]; 1,4-Dioxane",Form V
same,Slurry Result,[1]; Acetone,Form II
same,Slurry Result,[1]; Diethyl ether,Form II
same,Slurry Result,[1]; Ethyl acetate,Form II
same,Slurry Result,[1]; n-Hexan,Form II
same,Slurry Result,[1]; p-Xylene,Form II
same,Slurry result in 2-propanol,"[2]; 50° C., 1 week (7 days)",Form II was obtained
same,Slurry result in 2-propanol,[2]; [7],Form II was obtained
Br.CC(NC(C)(C)C)C(=O)c1cccc(Cl)c1 (centres unmarked) [Form II + Form III],Slurry Result,"[1]; 1,2-Dimethoxy Ethane",Form II
same,Slurry Result,"[1]; 1,4-Dioxane",Form V
same,Slurry Result,[1]; Acetone,Form II
same,Slurry Result,[1]; Diethyl ether,Form II
same,Slurry Result,[1]; Ethyl acetate,Form II
same,Slurry Result,[1]; n-Hexan,Form II
same,Slurry Result,[1]; p-Xylene,Form II
Br.CC(NC(C)(C)C)C(=O)c1cccc(Cl)c1 (centres unmarked) [Form III],XRD pattern / crystal form after storage,[3]; 30 days,converted into Form I
Br.CC(NC(C)(C)C)C(=O)c1cccc(Cl)c1 (centres unmarked) [Form IV],XRD pattern / crystal form after storage,[3]; 30 days,converted into Form I
Br.CC(NC(C)(C)C)C(=O)c1cccc(Cl)c1 (centres unmarked) [Form VII],DSC (onset ° C.),[4],268.7 °C
same,XRD pattern / crystal form after storage,[5],stable form
Br.CC(NC(C)(C)C)C(=O)c1cccc(Cl)c1 (centres unmarked) [Form V],XRD pattern / crystal form after storage,[3]; 30 days,converted into Form I
same,DSC (onset ° C.),[4],237.85 °C
"CC(NC(C)(C)C)C(=O)c1cccc(Cl)c1 (centres unmarked) [bupropion HCl, reference compound]",base value that was released,[6],130 mg

# — patent US8604085B2, “Bupropion hydrobromide polymorphs” (Valeant International Bermuda, priority 2008, dated 2013)
